Where two headings read alike, the source gives them in different places.

For the test, the target named is T1, Syk (Homo sapiens, UniProt P43405).
T1 construct: purchased Carna Biosciences
Kind of test: Syk HTRF assay. The test is classed as biochemical. A digest of the protocol: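 Read-out is the 665 nm/615 nm time-resolved fluorescence ratio after EDTA stop and Eu-anti-phosphotyrosine plus streptavidin-DyLight 647 detection. Reaction ran 1 h at room temperature with start mix of 87.5 μM ATP and 80 nM substrate peptide in pH 7.6 HEPES/MgCl2 buffer.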
A general note: Time-resolved FRET reads energy transfer from a long-lived donor to a nearby acceptor.

Setting [1] is: read-out: Activity Level (Syk HTRF assay IC50).
Setting [2] is: IC50 activity level, read-out: Activity Level.
[3] abbreviates: activity levels A-D, read-out: Activity Level (IC50 in the Syk HTRF assay).

As for `Cn1nnc2ccc(Nc3nc4cccc(-c5cccc(O)c5)n4n3)cc21` [compound 28, 3-(2-(1-methyl-1H-benzo[d][1,2,3]triazol-6-ylamino)-[1,2,4]triazolo[1,5-a]pyridin-5-yl)phenol], under setting [1], the IC50 lay within 0.005 to 250 nM.

As to `CN1C(=O)C(C)(C)c2ccc(Nc3nc4cccc(N[C@H]5CC[C@@H](O)CC5)n4n3)cc21` [Example 152, cis-6-(5-(4-hydroxycyclohexylamino)-[1,2,4]triazolo[1,5-a]pyridin-2-ylamino)-1,3-3-trimethylindolin-2-one], under setting [1], the IC50 lay in the range of 0.005 to 250 nM.

As to `O=C1NCc2c1cccc2-c1cccc2nc(Nc3ccccc3)nn12` [Example 499, 4-(2-(phenylamino)-[1,2,4]triazolo[1,5-a]pyridin-5-yl)-isoindolin-1-one], the IC50 under setting [2] lay in the range of 1000 to 10000 nM.

As for `Cc1n[nH]c2cc(Nc3nc4cccc(C[C@H]5CC[C@H](O)CC5)n4n3)ccc12` (stereo in doubt) [Example 240, trans-4-((2-(3-methyl-1H-indazol-6-ylamino)-[1,2,4]triazolo[1,5-a]pyridin-5-yl)methyl)cyclohexanol], under setting [3], the IC50 lay within 0.005 to 250 nM.

Turning to `OC(Cc1cccc2nc(Nc3ccc(F)cc3)nn12)c1ccccc1` (centres unmarked) [Example 431, 2-(2-(4-fluorophenylamino)-[1,2,4]triazolo[1,5-a]pyridin-5-yl)-1-phenylethanol], the IC50 under setting [2] fell in the range of 250 to 500 nM.

As for `O=C1NCc2cc(Nc3nc4cccc(Cc5ccnc(O)c5)n4n3)ccc21` [Example 157, 5-(5-((2-hydroxypyridin-4-yl)methyl)-[1,2,4]triazolo[1,5-a]pyridin-2-ylamino)isoindolin-1-one], the IC50 under setting [1] lay within 0.005 to 250 nM.

As for `Cc1cc(Nc2nc3cccc(CC4CCOCC4)n3n2)cc2c1cnn2C` [Example 147, N-(1,4-dimethyl-1H-indazol-6-yl)-5-((tetrahydro-2H-pyran-4-yl)methyl)-[1,2,4]triazolo[1,5-a]pyridin-2-amine], the IC50 under setting [1] is 0.005 to 250 nM.

For the molecule `OC[C@H]1CCCC[C@H]1Nc1cccc2nc(Nc3ccc(C(F)(F)F)cc3)nn12` (stereo in doubt) [Example 356, (1S,2R)-(2-(2-(4-(trifluoromethyl)phenylamino)-[1,2,4]triazolo[1,5-a]pyridin-5-ylamino)cyclohexyl)methanol], the IC50 under setting [3] was in the range of 1000 to 10000 nM.

With `Cc1noc2cc(Nc3nc4cccc(CC5CCOCC5)n4n3)ccc12` [Example 537, 3-methyl-N-(5-((tetrahydro-2H-pyran-4-yl)methyl)-[1,2,4]triazolo[1,5-a]pyridin-2-yl)benzo[d]isoxazol-6-amine], the IC50 under setting [2] lay in the range of 500 to 1000 nM.

Turning to `CNC(=O)c1ccc(Nc2nc3cccc(N4CCC(O)C4)n3n2)cc1` (stereo in doubt) [Example 250, (R)-4-(5-(3-hydroxypyrrolidin-1-yl)-[1,2,4]triazolo[1,5-a]pyridin-2-ylamino)-N-methylbenzamide], under setting [3], the IC50 was in the range of 500 to 1000 nM.

Take `c1ccc(Cc2cccc3nc(Nc4ccccc4)nn23)cc1` [Example 506, 5-benzyl-N-phenyl-[1,2,4]triazolo[1,5-a]pyridin-2-amine]: the IC50 under setting [2] lay in the range of 1000 to 10000 nM.

Turning to `Nc1n[nH]c2cc(-c3cccc4nc(Nc5ccccc5)nn34)ccc12` [Example 439, 5-(3-amino-1H-indazol-6-yl)-N-phenyl-[1,2,4]triazolo[1,5-a]pyridin-2-amine], the IC50 under setting [2] lay in the range of 0.005 to 250 nM.

For `Cn1c(=O)[nH]c2cc(Nc3nc4cccc(N[C@H]5CC[C@@H](O)CC5)n4n3)ccc21` [Example 570, cis-5-(5-(4-hydroxycyclohexylamino)-[1,2,4]triazolo[1,5-a]pyridin-2-ylamino)-1-methyl-1H-benzo[d]imidazol-2(3H)-one], the IC50 under setting [2] was 0.005 to 250 nM.

As to `CC1(C)C(=O)Nc2cc(Nc3nc4cccc(C[C@H]5CC[C@](C)(O)CC5)n4n3)ccc21` [Example 140, cis-6-(5-((4-hydroxy-4-methylcyclohexyl)methyl)-[1,2,4]triazolo[1,5-a]pyridin-2-ylamino)-3,3-dimethylindolin-2-one], under setting [1], the IC50 lay in the range of 0.005 to 250 nM.

`c1ccc(Nc2nc3cccc(NC4CCCNC4)n3n2)cc1` (stereo in doubt) [Example 497, (R)-N^2-phenyl-N^5-(piperidin-3-yl)-[1,2,4]triazolo[1,5-a]pyridin-2,5-diamine]: the IC50 under setting [2] lay in the range of 1000 to 10000 nM.

Consider `Cc1n[nH]c2ncc(Nc3nc4cccc(CC5CCOCC5)n4n3)cc12` [Example 544, 3-methyl-N-(5-((tetrahydro-2H-pyran-4-yl)methyl)-[1,2,4]triazolo[1,5-a]pyridin-2-yl)-1H-pyrazolo[3,4-b]pyridin-5-amine], for which the IC50 under setting [2] lay within 500 to 1000 nM.

`CN(C)Cc1nc2ccc(Nc3nc4cccc(-c5ccccc5)n4n3)cc2[nH]1` [compound 31, N-(2-((dimethylamino)methyl)-1H-benzo[d]imidazol-6-yl)-5-phenyl-[1,2,4]triazolo[1,5-a]pyridin-2-amine]: the IC50 under setting [1] lay within 0.005 to 250 nM.

`c1ccc(-c2cccc3nc(Nc4ccc5oncc5c4)nn23)cc1` [compound 43, N-(5-phenyl-[1,2,4]triazolo[1,5-a]pyridin-2-yl)benzo[d]isoxazol-5-amine]: the IC50 under setting [1] was 0.005 to 250 nM.

As for `Cc1cc(C)cc(Nc2nc3cccc(N[C@H]4CC[C@@H](O)CC4)n3n2)c1` [Example 314, cis-4-(2-(3,5-dimethylphenylamino)-[1,2,4]triazolo[1,5-a]pyridin-5-ylamino0)cyclohexaol], under setting [3], the IC50 is 0.005 to 250 nM.

`Cc1n[nH]c2ncc(Nc3nc4cccc(NC5CCOCC5)n4n3)cc12` [Example 539, N^2-(3-methyl-1H-pyrazolo[3,4-b]pyridin-5-yl)-N^5-(tetrahydro-2H-pyran-4-yl)-[1,2,4]triazolo[1,5-a]pyridin-2,5-diamine]: the IC50 under setting [2] is 1000 to 10000 nM.

As for `CC(Cc1cccc2nc(Nc3ccccc3)nn12)C(N)=O` (stereo in doubt) [Example 461, (S)-2-methyl-3-(2-(phenylamino)-[1,2,4]triazolo[1,5-a]pyridin-5-yl)propanamide], the IC50 under setting [2] was 1000 to 10000 nM.

In the case of `Cc1cc(Nc2nc3cccc(N[C@H]4CC[C@@H](O)CC4)n3n2)cc2[nH]ncc12` [Example 204, cis-4-(2-(4-methyl-1H-indazol-6-ylamino)-[1,2,4]triazolo[1,5-a]pyridin-5-ylamino)cyclohexanol], the IC50 under setting [3] fell in the range of 0.005 to 250 nM.

`NCCCOc1cccc2nc(Nc3ccc(C(F)(F)F)cc3)nn12` [Example 321, 5-(3-aminopropoxy)-N-(4-(trifluoromethyl)phenyl)-[1,2,4]triazolo[1,5-a]pyridin-2-amine]: the IC50 under setting [3] lay within 1000 to 10000 nM.

`O=C1CN(Cc2cccc3nc(Nc4ccc5c(C(F)(F)F)n[nH]c5c4)nn23)CCN1` [Example 155, 4-((2-(3-(trifluoromethyl)-1H-indazol-6-ylamino)-[1,2,4]triazolo[1,5-a]pyridin-5-yl)methyl)piperazin-2-one]: the IC50 under setting [1] was in the range of 0.005 to 250 nM.

As to `O=C1CN(Cc2cccc3nc(Nc4ccc(C(F)(F)F)cc4)nn23)CC(=O)N1` [Example 264, 4-((2-(4-(trifluoromethyl)phenylamino)-[1,2,4]triazolo[1,5-a]pyridin-5-yl)methyl)piperazine-2,6-dione], the IC50 under setting [3] lay in the range of 0.005 to 250 nM.

On to `Cc1cccc2nc(Nc3ccc4c(c3)NC(=O)C4(C)C)nn12` [Example 564], for which, under setting [2], the IC50 was 0.005 to 250 nM.

Regarding `CC(C)(O)[C@H]1CC[C@@H](Nc2cccc3nc(Nc4ccc(C(F)(F)F)cc4)nn23)CC1` [Example 385, cis-2-(4-(2-(4-(trifluoromethyl)phenylamino)-[1,2,4]triazolo[1,5-a]pyridin-5-ylamino)cyclohexyl)propan-2-ol], the IC50 under setting [3] is 500 to 1000 nM.

In the case of `OC1CCN(c2cccc3nc(Nc4ccc(C(F)(F)F)cc4)nn23)C1` (stereo in doubt) [Example 333, (S)-1-(2-(4-(trifluoromethyl)phenylamino)-[1,2,4]triazolo[1,5-a]pyridin-5-yl)pyrrolidin-3-ol], the IC50 under setting [3] fell in the range of 250 to 500 nM.

Regarding `CNC(=O)c1ccc(Nc2nc3cccc(N4CCCC4)n3n2)cc1` [Example 251, N-methyl-4-(5-(pyrrolidin-1-yl)-[1,2,4]triazolo[1,5-a]pyridin-2-ylamino)benzamide], under setting [3], the IC50 fell in the range of 250 to 500 nM.

On to `OC(c1cccc2nc(Nc3ccccc3)nn12)C1CCN(Cc2ccccc2)CC1` (centres unmarked) [Example 491, (1-benzylpiperidin-4-yl)(2-(phenylamino)-[1,2,4]triazolo[1,5-a]pyridin-5-yl)methanol], for which the IC50 under setting [2] lay in the range of 1000 to 10000 nM.

As for `CC(C)n1ncc2ccc(Nc3nc4cccc(N[C@H]5CC[C@@H](O)CC5)n4n3)cc21` [Example 243, cis-4-(2-(1-isopropyl-1H-indazol-6-ylamino)-[1,2,4]triazolo[1,5-a]pyridin-5-ylamino)cyclohexanol], the IC50 under setting [3] lay in the range of 0.005 to 250 nM.

For the molecule `OC[C@H]1CC[C@H](Nc2cccc3nc(Nc4ccc(C(F)(F)F)cc4)nn23)CC1` (stereo in doubt) [Example 414, trans-(4-(2-(4-(trifluoromethyl)phenylamino)-[1,2,4]triazolo[1,5-a]pyridin-5-ylamino)cyclohexyl)methanol], the IC50 under setting [2] lay in the range of 500 to 1000 nM.

For the molecule `COCc1nc2ccc(Nc3nc4cccc(N[C@H]5CC[C@@H](O)CC5)n4n3)cc2[nH]1` [Example 196, cis-4-(2-(2-(methoxymethyl)-1H-benzo[d]imidazol-6-ylamino)-[1,2,4]triazolo[1,5-a]pyridin-5-ylamino)cyclohexyl], the IC50 under setting [1] lay in the range of 0.005 to 250 nM.

As for `Cc1n[nH]c2cc(Nc3nc4cccc(C[C@H]5CC[C@@H](O)CC5)n4n3)ccc12` [Example 239, cis-4-((2-(3-methyl-1H-indazol-6-ylamino)-[1,2,4]triazolo[1,5-a]pyridin-5-yl)methyl)cyclohexanol], the IC50 under setting [3] was 0.005 to 250 nM.

Consider `CN1CCC(NC(=O)c2ccc(Nc3nc4cccc(-c5cccc(O)c5)n4n3)cc2)CC1` [compound 34, 4-(5-(3-hydroxyphenyl)-[1,2,4]triazolo[1,5-a]pyridin-2-ylamino)-N-(1-methylpiperidin-4-yl)benzamide], for which the IC50 under setting [1] was 0.005 to 250 nM.

These data come from US8299056B2 (Signal Pharmaceuticals, LLC, priority 2008, dated 2012).
